Assay results from patent US4766114A, “Tricyclic compound called 5-((3-chloro-6-methyl-5,5-dioxo-6,11-dihydro-dibenzo (c,f) (1,2)thiazepin-11-yl)-amino) pentanoic acid” (ADIR Et Compagnie, priority 1986, dated 1988).
Read-outs that look alike come from different tables or passages of the source.

Key:
antidepressant activity [1] = details: French Pat. No. 71.32197; cited from earlier work
[2] = tested on: aggressivity of isolated mice; test: Effects on the aggressivity of isolated mice; format: in vivo, mouse (male CD); details: for % OF PROTECTED COUPLES (no attack) / MEAN NUMBER OF ATTACKS ± SD: 30 minutes before test; for % OF PROTECTED COUPLES (no attack): 10 couples; for MEAN NUMBER OF ATTACKS ± SD: 3 minute test
Experimental: The male CD mice (Charles RIVER) used in this study were housed in small (18×10×10 cm) individual cages with the walls painted black, with one mouse per cage, for several months, at a constant temperature of 21° C. and in a light-darkness cycle of 12 hours. The average weight of the mice at the time of the study was 45 g.
Each experimental group comprised 10 couples of mice previously selected for their aggressivity. The aggressivity test was carried out on non-fasting animals. The "intruding" mouse of each couple was placed in the cage containing the other mouse for a 3 minute period.
The product was administered by the intraperitoneal route, 30 minutes before the test.

[3] = tested on: reserpine-induced ptosis in the mouse; test: Effects on reserpine-induced ptosis in the mouse; format: in vivo, mouse (male NMRI); details: 25 mg.kg^-1 IP, reserpine 2 mg.kg^-1 IV
Experimental: This experiment was carried out on groups of 20 male NMRI mice (IFFA-CREDO), with an average weight of 20±2 g. […] GOURET et al., in J. Pharmacol., 1977, 8, (3) p. 333-350.
One hour after the injection of the reserpine, the animals were placed on a 5 cm×5 cm square, wood platform for 20 seconds. Ptosis was considered to be positive if the animal's eyes remained shut during the 20 seconds after it was placed on the platform. On the other hand, the animal was considered to be protected if the eyes were not completely closed during the 20 seconds following the moment when it was placed on the platform.

[4] = tested on: reserpine-induced hypothermia in the mouse; test: Effects on reserpine-induced hypothermia in the mouse; format: in vivo, mouse (NMRI); details: 50 mg.kg^-1 IP
Experimental: This study was carried out on experimental groups of 10 NMRI mice (IFFA-CREDO) fasted for 18 hours. […] One hour later, all the animals were given an intraperitoneal injection of 2 mg.kg^-1 of reserpine. Hypothermia was evaluated 4 hours after the injection of reserpine by measuring the rectal temperature using an electric thermometer.

[5] = tested on: tetrabenazine-induced ptosis in the mouse; test: Effects on tetrabenazine-induced ptosis in the mouse; format: in vivo, mouse (male CD)
Experimental: Male CD mice (Charles River), of average weight 23 g, were distributed in groups of 12 animals. […] The dose of products tested was 25 mg.kg^-1. The animals were observed individually 5, 25, 35 and 55 minutes after the injection of the tetrabenazine and the intensity of the ptosis was evaluated using a 0 to 4 rating scale.

antidepressant activity [6] = test: Antidepressant activity (standard pharmacological tests); format: in vivo
Excerpt: The standard pharmacological tests used to evaluate the antidepressant activity of new chemical compounds, described, in particular, in Enna S. J. et al. "Antidepressants: Neurochemical Behavioral, and Clinical Perspectives" Raven Press N.Y. 1981, p.

[7] = 20 mg.kg^-1 IP, controls 0%, S = statistically significant change

## CN1c2ccccc2C(NCCCCCCC(=O)O)c2ccc(Cl)cc2S1(=O)=O (stereo not shown) [TAHA, 7-[(3-chloro-6-methyl-5,5-dioxo-6,11-dihydro-dibenzo(c,f)(1,2)thiazepin-11-yl)-amino]heptanoic acid, reference compound]
Antidepressant activity [1]
  antidepressant properties (in words): antidepressant properties
[2]; 10 mg.kg^-1 IP, controls 10%
  % OF PROTECTED COUPLES (no attack): 10%
[2]; 20 mg.kg^-1 IP
  anti-aggressive effect (in words): clear anti-aggressive effect
[2]; [7]
  % OF PROTECTED COUPLES (no attack): 40%
[2]; 20 mg.kg^-1 IP, water controls 8.3 ± 6.0
  MEAN NUMBER OF ATTACKS ± SD: 3.7 ± 4.9

## CN1c2ccccc2C(NCCCCC(=O)O)c2ccc(Cl)cc2S1(=O)=O (stereo not shown) [compound of the formula I, 5-[(3-chloro-6-methyl-5,5-dioxo-6,11-dihydro-dibenzo(c,f)(1,2)thiazepin-11-yl)-amino]pentanoic acid]
[3]
  antagonism of reserpine-induced ptosis (in words): much more active
[3]; 20 male NMRI mice per group
  animals protected from ptosis: 53%
[4]
  antagonism of reserpine-induced hypothermia (in words): much higher
[4]; rectal temperature 4 hours after reserpine 2 mg.kg^-1 IP, controls 24.7 ± 0.88
  FINAL TEMPERATURES MEAN ± SD: 30.9 ± 3.7
[5]; 25 mg.kg^-1 IP
  activity against tetrabenazine-induced ptosis compared with TAHA (in words): much greater and long-lasting activity than TAHA
[5]; 25 mg.kg^-1 IP, 5 minutes after tetrabenazine 20 mg.kg^-1
  % controls (% change of the mean ptosis scores in comparison with the controls), 5 MINUTES: -69%
[5]; 25 mg.kg^-1 IP, 5 minutes after tetrabenazine 20 mg.kg^-1, 0 to 4 scale, controls 1.33 ± 0.65
  MEAN VALUE OF THE PTOSIS INTENSITY SCORE ± SD, 5 MINUTES: 0.42 ± 0.51
[5]; 25 mg.kg^-1 IP, 25 minutes after tetrabenazine 20 mg.kg^-1
  % controls (% change of the mean ptosis scores in comparison with the controls), 25 MINUTES: -32%
[5]; 25 mg.kg^-1 IP, 35 minutes after tetrabenazine 20 mg.kg^-1
  % controls (% change of the mean ptosis scores in comparison with the controls), 35 MINUTES: -35%
[5]; 25 mg.kg^-1 IP, 35 minutes after tetrabenazine 20 mg.kg^-1, 0 to 4 scale, controls 2.83 ± 0.58
  MEAN VALUE OF THE PTOSIS INTENSITY SCORE ± SD, 35 MINUTES: 1.83 ± 0.39
[5]; 25 mg.kg^-1 IP, 55 minutes after tetrabenazine 20 mg.kg^-1, 0 to 4 scale, controls 3.08 ± 0.51
  MEAN VALUE OF THE PTOSIS INTENSITY SCORE ± SD, 55 MINUTES: 2.42 ± 0.67
[5]; 25 mg.kg^-1 IP, 55 minutes after tetrabenazine 20 mg.kg^-1, NS = Non significant
  % controls (% change of the mean ptosis scores in comparison with the controls), 55 MINUTES: -22%
[5]; mouse, in vivo, ip
  MEAN VALUE OF THE PTOSIS INTENSITY SCORE ± SD, 25 MINUTES: 1.75 ± 0.45
[2]; 10 mg.kg^-1 IP, controls 10%
  % OF PROTECTED COUPLES (no attack): 20%
[2]; 10 mg.kg^-1 IP, water controls 6.7 ± 4.7 (ATAH), 5.4 ± 2.8 (formula I)
  MEAN NUMBER OF ATTACKS ± SD: 7.2 ± 5.9
[2]; 20 mg.kg^-1 IP
  anti-aggressive effect (in words): clear anti-aggressive effect
[2]; [7]
  % OF PROTECTED COUPLES (no attack): 60%
[2]; isolated mice, IP
  anti-aggressive activity compared with TAHA (in words): much greater than that of TAHA
Antidepressant activity [6]
  antidepressant activity (in words): much greater antidepressant activity
Antidepressant activity [6]; listed as 5-[(3-chloro-6-methyl-5,5-dioxo-6,11-dihydrodibenzo(c,f)(1,2)thiazepin-11-yl)-a
  antidepressant activity (in words): very potent antidepressant activity
